Results published in patent publication US9957236B2, “Selective inhibitors interfering with fibroblast growth factor receptor and FRS2 interaction for the prevention and treatment of cancer and other diseases” (LIMITED LIABILITY COMPANY “RUSSIAN PHARMACEUTICAL …, priority 2014, dated 2018).

How the values were obtained:
[1] = biological target: T1, FRS2α (Homo sapiens, UniProt Q8WU20); assay: FRS2α phosphorylation in hFOB cells (Western blotting); type: cell-based; set-up: endogenous in cells; host or cells: hFOB; conditions: hFOB (FGFR2 IIIc), RPT835 1 micron, FGF-1 100 ng/ml
T1 sequence (Q8WU20 1-508): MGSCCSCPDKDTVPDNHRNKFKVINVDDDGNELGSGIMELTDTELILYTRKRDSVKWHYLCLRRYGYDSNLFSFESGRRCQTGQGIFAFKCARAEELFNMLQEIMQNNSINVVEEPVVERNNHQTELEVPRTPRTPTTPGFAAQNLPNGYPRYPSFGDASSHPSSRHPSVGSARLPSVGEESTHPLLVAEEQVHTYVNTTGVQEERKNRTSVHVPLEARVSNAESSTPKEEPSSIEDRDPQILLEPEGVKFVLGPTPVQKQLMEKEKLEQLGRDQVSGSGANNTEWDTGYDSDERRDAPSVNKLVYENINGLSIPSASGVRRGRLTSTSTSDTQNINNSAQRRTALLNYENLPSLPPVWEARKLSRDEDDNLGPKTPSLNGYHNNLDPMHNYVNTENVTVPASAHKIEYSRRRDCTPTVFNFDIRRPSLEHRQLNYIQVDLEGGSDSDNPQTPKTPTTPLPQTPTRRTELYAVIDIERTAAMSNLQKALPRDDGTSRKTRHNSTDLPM
Experimental: The research assessed the influence of inhibitor RPT835 determined by formula II of this invention, intervention with interaction of FGFR2 represented by two most frequent isoforms IIIb and IIIc with FRS2. For this, human cell line of embryonal osteoblasts (hFOB) expressing only FGFR2 […], and human cell line of breast cancer SUM-52 expressing FGFR2 IIIb (all main versions of isoform—C1, C2, C3) were chosen.
Cells were divided into the groups: • 1a) hFOB • 1b) hFOB, stimulating FGF-1 (100 ng/ml) • 1c) hFOB, cultivation with RPT835 (1 micron) and stimulation of FGF-1 (100 ng/ml) • 2a) SUM-52 • 2b) SUM-52, stimulation of FGF-1 (100 ng/ml) • 2c) SUM-52, cultivation with RPT835 (1 micron) and stimulation of FGF-1 (100 ng/ml)

[2] = system: non-small cell lung cancer NCI-H226; assay: Tumor growth of NCI-H226 xenograft in nude mice; type: in vivo; conditions: 30 day; NCI-H226 not expressing FGFR2, 30 mg/kg daily through a stomach tube; P=0.619 vs control
Experimental: Females of immunodeficient mice (nude) at the age of 8 weeks were administered 2×10^6 tumor cells of human cell lines with various expression of FGFR2: • cell line of triple-negative breast cancer SUM52PE strongly expressing FGFR2 (purchased from Asterand, Inc. (Detroit, Mich.) • cell line of triple negative breast cancer HS578T weakly expressing FGFR2 (purchased from ATCC (CRL-125) • cell line of non-small cell lung cancer NCI-H226 not expressing FGFR2 (purchased from ATCC (CRL-5826)
After the tumor growth got established (1 mm^3), the mice were divided into control and treatment groups in accordance with the tumor type.
Control group 3 (N=10): NCI-H226, administration of water through a stomach tube, daily.
Treatment group 3 (N=10): NCI-H226, administration of inhibiter RPT835 through a stomach tube in a dose of 30 mg/kg, daily.
Size of tumor and weight of animals were measured every 3 day. The mice underwent euthanasia when the tumor reached the size of 2,000 mm^3 or on the 60 day of the experiment.

[3] = biological target: T1, FRS2α; assay: FRS2α phosphorylation in breast cancer cells MDA MB 134 (FGFR1 system); type: cell-based; set-up: endogenous in cells; host or cells: MDA MB 134; conditions: MDA MB 134 cells
Text: The purpose of this research was assessment of specific action of inhibitor RPT835 specified in this invention with formula II, on interaction of […] and FRS2 and assessment of influence on interaction of other types of FGFR and FRS2. For the experiment, 2 cell lines were selected: • stomach cancer KATO III, expressing FGFR2, and • breast cancer MDA MB 134, expressing FGFR1.
The research procedure was the same as in the previous examples: the cells were cultivated in presence of RPT835 followed by stimulation with FGF-2 and heparin. The other part of the cells was cultivated in presence of RPT835. Phosphorylation of FGFR1 (in breast cancer cells) and FGFR2 (in stomach cancer cells), and also FRS2a (in the both cell lines) and some intracellular kinases (in breast cancer cells) was assessed using manual and automated Western blotting.

[4] = Toxicity assessment in the in vivo studies of Example 13; conditions: nude mice, 30 mg/kg daily through a stomach tube
Experimental: Toxicity of inhibitor RPT835 was assessed in in vivo studies described in Example 13. According to the standard procedure, all undesirable events were assessed, as well as loss of weight by animals, when the inhibitor is used compared to the control group.

[5] = system: modified line of non-small cells lung cancer A549; assay: Crystal Violet proliferation assay, modified A549; type: cell-based; conditions: Homo sapiens; modified A549 with pronounced expression of FGFR2
Text: This research used additional cell lines: SKOV3 (ovarian cancer, ATCC # HTB-77), HS578T (breast cancer, ATCC # HTB-126), T47D (breast cancer, ATCC #HTB-1336), modified line of non-small cells lung cancer A549, line of metastatic melanoma of skin Mel Kor (RF Patent No. 2287578), and additional study of antiangiogenic activity—cell line SVEC-4-10 (endothelial cells, ATCC #CRL-2181).
The cells were cultivated in environment RPMI-1640 (PANECO) (SKOV3, HS578T, T47D, Mel-Kor) or DMEM (PANECO) (SVEC-4-10) containing 10% of embryonal serum cattle (FCS, HyClone), 2 mM glutamine (PANECO), antibiotics (100 IU/mL penicillin and […] streptomycin (all PANECO)) at 37° C. and 5% CO2. Cells at 70-80% monolayer were used for the experiments.
The cells were planted in low density (30 t of cells/ml) in triplets on a 96-cavity plate in an environment containing 0.1% of FCS serum. […] Growth of cells was determined by the modified “Crystal Violet mitogenic method” for 7 days after the experiment start. […] The dye was dissolved in ethanol and measured on a spectrophotometer at 540-560 nm. The curve of cell proliferative activity inhibition was built by the dependence of the percent of the cell quantity (Y axis) on concentration of inhibitor RPT835 in the cavity of the plate (X axis). […]

Cc1cc([N+](=O)[O-])c(NS(=O)(=O)c2cccc(C(=O)O)c2)cc1-c1cccnc1 [RPT835, 3-(N-(4-methyl-2-nitro-5-(pyridin-3-yl)phenyl)sulfamoyl)benzoic acid]
FRS2α phosphorylation level [1]: completely suppressed the phosphorylation | average tumor volume [2]: 1,053±259.7 mm3 | phosphorylation of FRS2α (system FGFR1) [3]: did not have influence | weight loss and undesirable side effects of the therapy [4]: Neither weight loss, nor any undesirable side effects | IC50 [5]: 10 nM
